Experimental data: patent US20160324992A1, “IDENTIFICATION AND TREATMENT OF VULNERABLE PLAQUES” (OTTAWA HEART INSTITUTE RESEARCH CORPORATION, priority 2015, published 2016)

Legend:
MLKL = assay: Western blot of pMLKL in BMDMs; format: cell-based, mouse
Method: Western blot analysis. For western blot analysis of RIP3, cells were lysed in 1.25× sample buffer (83 mM Tris pH 6.8, 6.7% SDS, 13.3% Glycerol, 1.3% β-mercaptoethanol, 0.03% bromophenol blue) and boiled at 100° C. for 5 minutes prior to being subjected to SDS-PAGE and western blot analysis. PVDF membranes were blocked with 5% skim milk, followed by incubation with RIP3 (ProSci Inc, 1:500) or HSP90 (Santa Cruz Biotechnology, 1:1000) antibodies. For analysis of MLKL protein, cells were lysed in ice-cold M2 lysis buffer (50 mM NaF, 20 mM Tris, pH 7.0, 0.5% NP40, 250 mM NaCl, 3 mM EDTA, 3 mM EGTA, supplemented with Roche protease and phosphatase inhibitor cocktails) for 30 mins before centrifugation to pellet insoluble component. Samples were mixed 3:1 with 4× sample loading buffer (Bio-rad) prior to SDS PAGE and western blot analysis. PVDF membranes were blocked in 5% BSA and probed with MLKL (Millipore, 1:500) or GAPDH (Millipore, 1:1000) antibodies. Goat anti-mouse (1:2500) or anti-rabbit (1:5000) or anti-rat (1:2500) IRDye® secondary antibodies (Rockland) were utilized. The protein bands were visualized using Odyssey Infrared Imaging System (LI-COR Biotechnology).

[1] = test system: bone-marrow-derived macrophages (BMDMs); format: cell-based
Method: (§1) Bone-marrow derived macrophages. Bone-marrow derived macrophages (BMDMs) were isolated from femurs of adult VVT or Rip3^−/− mice and differentiated into macrophages using DMEM supplemented with 10% FBS and 1% penicillin-streptomycin plus either 20% L929 conditioned media or 20 ng/mL mouse M-CSF for 7-10 days. To polarize macrophages to M1 or M2, BMDMs were incubated on day 7 with 1 μg/mL LPS and 100 ng/mL IFNγ or 10 ng/mL IL-4 respectively for 24 h. Damage Associated Molecular Patterns (DAMPs) were obtained by subjecting BMDMs to 3×30 min freeze-thaw cycle or treatment with 100 ng/mL LPS and 50 μM zVAD.fmk for 24 hours, after which the media was collected and added to naïve cells at indicated ratios.
(§2) Cell viability assays. Cell death was determined by measuring lactate dehydrogenase (LDH) release into the media. Briefly, cells were treated with 100 μg/ml oxLDL in the presence or absence of 25 μM zVAD.fmk or 50 μM necrostatin-1 (Nec-1) for 24 hours and media was collected and centrifuged to pellet cell debris. The amount of LDH in media was measured in a kinetic assay by adding PBS containing 0.02% NADH and 0.03% sodium pyruvate and measuring absorbance at 340 nm for 10 minutes at 1 minute intervals. The slope of the curve provides a measure of cell death, which was expressed as fold change relative to control.
as §1, with “Rip3−/−” for “Rip3^−/−”
as §2, with “ug/ml” for “μg/ml”, “uM” for “μM”

## CN1C(=O)C(Cc2c[nH]c3ccccc23)NC1=S (centres unmarked) [Nec-1, necrostatin-1]
MLKL
  oxLDL-induced MLKL phosphorylation (in words): dampened
[1]
  cell death with compound alone (in words): did not promote cell death
[1]; BMDMs, 100 μg/mL oxLDL + 50 μM Nec-1, 24 h, oxLDL alone 3.9±0.6-fold, mean±SEM
  cell death (LDH release), fold change relative to control: 2.3±0.4 fold
[1]; BMDMs, oxLDL + zVAD.fmk + Nec-1, 24 h
  inhibition of oxLDL+zVAD.fmk-induced cell death (in words): similarly inhibited
[1]; M2-polarized macrophages, oxLDL 24 h
  inhibition of oxLDL-induced cell death (in words): similarly inhibited
